Counter-ions that a name gives are not always drawn.

The test has as its target T1, HERG channel (Homo sapiens, UniProt Q12809).
T1 construct: expressed in transfected cells
Description: Test B: Rb+-efflux assay for detection of HERG channel blockers. The class given is cell-based. Particulars: depolarisation-induced Rb+-efflux from Chinese hamster ovary cells stably expressing the HERG-channel; read-out: pIC50 for HERG channel blockade (converted). The procedure: Rb^+-Efflux Assay for Detection of HERG Channel Blockers
The human ether-a-go-go related gene (HERG) encodes the voltage-gated K^+ channel underlying the cardiac rapid delayed rectifier current IKr. The IC50 value for HERG channel blockade was determined using a high throughput functional assay based on depolarisation-induced Rb^+-efflux from Chinese hamster ovary cells stably expressing the HERG-channel.
Cells were grown in Ham F12 (Life Technologies 31765-027) supplemented with 10% FBS and 0.6 mg/mL hygromycin B and were routinely passaged twice-weekly. For experimental studies, cells were plated at a density of 15,000 cells/well in Falcon, 384-well tissue culture-treated black-walled clear-bottomed plates and were thereafter incubated overnight at 37° C. in a cell culture incubator.
Following incubating overnight, cell plates were washed and a Rb^+-Load buffer (a physiological buffer containing Rb^+) was added. Cell plates were then incubated for 3 hours and were thereafter washed. Following this wash, the test compounds were added. The cell plates were then incubated for another 10 minutes and, following this incubation period, external K^+ concentration was increased in order to depolarize the cells and activate HERG channels. After a ten minute exposure period to the increased K^+ concentration, supernatants were transferred to new microplates for subsequent determination of Rb^+ content, using Atomic Absorption Spectrometry analysis.
The basal Rb^+ efflux (content of Rb^+ (mg/L) in supernatants of wells receiving only wash buffer) was defined as 100% inhibition and the stimulated Rb^+efflux (content of Rb^+ (mg/L) in supernatants of wells exposed only to increased external potassium concentration) was defined as 0% inhibition.
Compound activity was expressed as: […]
A: Rb^+ content in wells receiving test compound+increased external K^+.
C: Stimulated Rb^+ efflux.

T1 sequence (Q12809 whole entry): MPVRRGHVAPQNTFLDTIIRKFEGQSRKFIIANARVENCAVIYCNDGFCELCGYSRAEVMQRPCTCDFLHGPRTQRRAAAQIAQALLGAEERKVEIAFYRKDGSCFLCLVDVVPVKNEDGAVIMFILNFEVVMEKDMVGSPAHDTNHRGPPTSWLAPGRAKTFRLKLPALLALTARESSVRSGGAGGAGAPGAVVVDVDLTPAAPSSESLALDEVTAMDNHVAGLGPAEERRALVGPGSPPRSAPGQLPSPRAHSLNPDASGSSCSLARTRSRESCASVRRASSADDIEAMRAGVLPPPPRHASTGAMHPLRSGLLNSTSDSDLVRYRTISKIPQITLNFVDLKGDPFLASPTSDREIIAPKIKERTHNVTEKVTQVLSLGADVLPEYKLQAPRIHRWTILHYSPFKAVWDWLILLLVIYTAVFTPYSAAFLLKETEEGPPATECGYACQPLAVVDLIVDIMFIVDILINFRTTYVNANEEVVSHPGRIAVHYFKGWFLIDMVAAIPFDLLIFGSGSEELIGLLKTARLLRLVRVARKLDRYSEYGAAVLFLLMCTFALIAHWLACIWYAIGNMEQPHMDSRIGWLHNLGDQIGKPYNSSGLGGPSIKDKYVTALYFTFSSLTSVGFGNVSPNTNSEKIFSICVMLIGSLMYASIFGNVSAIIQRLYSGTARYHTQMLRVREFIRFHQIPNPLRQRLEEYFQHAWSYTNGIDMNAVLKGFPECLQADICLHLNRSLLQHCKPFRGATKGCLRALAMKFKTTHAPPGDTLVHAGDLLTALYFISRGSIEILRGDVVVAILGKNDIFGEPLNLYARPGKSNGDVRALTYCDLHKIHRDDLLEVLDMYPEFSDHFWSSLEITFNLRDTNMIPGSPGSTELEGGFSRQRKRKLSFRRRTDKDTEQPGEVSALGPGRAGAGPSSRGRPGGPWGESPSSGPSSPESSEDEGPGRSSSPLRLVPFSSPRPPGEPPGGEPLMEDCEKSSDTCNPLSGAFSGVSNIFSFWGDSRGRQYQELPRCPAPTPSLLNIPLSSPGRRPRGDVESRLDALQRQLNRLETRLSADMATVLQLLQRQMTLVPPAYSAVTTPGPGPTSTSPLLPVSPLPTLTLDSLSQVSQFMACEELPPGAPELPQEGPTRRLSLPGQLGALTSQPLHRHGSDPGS

For the compound `CS(=O)(=O)N(CCOc1ccc(C#N)cc1)CCN1CC2CN(Cc3ccccc3)CC(C1)O2` [Example 2, N-[2-(7-Benzyl-9-oxa-3,7-diazabicyclo[3.3.1]non-3-yl)ethyl]-N-[2-(4-cyanophenoxy)ethyl]methanesulfonamide, tartaric acid salt], the IC50 was 2820 nM. As to `CS(=O)(=O)N(CCOc1ccc(C#N)cc1)CCN1CC2CN(Cc3ccc(F)cc3)CC(C1)O2` [Example 3, N-[2-(4-Cyanophenoxy)ethyl]-N-{2-[7-(4-fluorobenzyl)-9-oxa-3,7-diaza-bicyclo[3.3.1]non-3-yl]ethyl}methanesulfonamide], the IC50 is 1580 nM. Under `CN(C)C(=O)N(CCOc1ccc(C#N)cc1)CCN1CC2CN(Cc3ccc(OC(F)F)cc3)CC(C1)O2` [9 (xlvi), N-[2-(4-cyanophenoxy)ethyl]-N-(2-{7-[4-(difluoromethoxy)-benzyl]-9-oxa-3,7-diazabicyclo[3.3.1]non-3-yl}ethyl)-N′,N′-dimethylurea] stands 4170 nM.

For the origin of these results see patent US7354917B2, “Oxabispidine compounds and their use in the treatment of cardiac arrhythmias” (AstraZeneca AB, priority 2004, dated 2008).
